The values that follow come from patent publication US5502035A, “N-terminus modified analogs of LHRH” (Tap Holdings Inc., priority 1994, dated 1996).

Molecules are shown by their SMILES.

For the test, the target named is T1, LHRH (Rattus norvegicus, UniProt P30969).
T1 construct: endogenous in cells; host or cells: rat pituitary cells (own knowledge of the cited Haviv 1989 method)
T1 sequence (P30969 1-327): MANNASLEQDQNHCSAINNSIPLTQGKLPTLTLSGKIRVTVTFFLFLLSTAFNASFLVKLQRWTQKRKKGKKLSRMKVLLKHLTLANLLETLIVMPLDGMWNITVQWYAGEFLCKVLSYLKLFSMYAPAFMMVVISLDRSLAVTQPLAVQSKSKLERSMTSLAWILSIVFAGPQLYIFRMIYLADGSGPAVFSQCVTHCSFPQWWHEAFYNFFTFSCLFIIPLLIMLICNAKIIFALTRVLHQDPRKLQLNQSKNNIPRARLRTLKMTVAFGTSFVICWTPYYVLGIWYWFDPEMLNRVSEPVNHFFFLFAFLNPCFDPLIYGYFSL
Description: in vitro test for LHRH antagonist potency (pA2). In kind it is cell-based. The note with it: negative logarithm of the antagonist concentration required to shift the response curve produced by the agonist leuprolide to two-fold higher concentration. The method, then:
Representative compounds of the present invention were evaluated in an in vitro test for LHRH antagonist potency (pA2). The test employed the method detailed in F. Haviv, et al. J. Med. Chem., 32:2340-2344 (1989). The values of pA2 are the negative logarithms of the concentration of the particular antagonist test compound required to shift the response curve produced by the agonist leuprolide to two-fold higher concentration. (Leuprolide is the LHRH agonist having the structure 5-oxo-Pro^1 -His^2 -Trp^3 -Ser^4 -Tyr^5 -D-Leu^6 -Leu^7 -Arg^8 -Pro^9 -NHEt and is disclosed and claimed in U.S. Pat. No. 4,005,063.) Typically pA2 values of 9.5 or greater are indicative of good LHRH antagonist potency, with values of 10.0 or greater being preferred.

By Kb is commonly meant the equilibrium dissociation constant of an antagonist, usually derived from a functional assay. As to `CC(C)C[C@H](NC(=O)[C@@H](CCCCNC(=O)c1cccnc1)NC(=O)[C@H](Cc1ccc(O)cc1)N(C)C(=O)[C@H](CO)NC(=O)[C@@H](Cc1cccnc1)NC(=O)[C@@H](Cc1ccc(Cl)cc1)NC(=O)[C@@H](Cc1ccc2ccccc2c1)NC(=O)CNC(=O)C1CCCO1)C(=O)N[C@@H](CCCCNC(C)C)C(=O)N1CCC[C@H]1C(=O)N[C@H](C)C(N)=O` (mixture of isomers) [Example 3, N-(R,S)-Tetrahydrofur-2-oyl-Gly-D2Nal-D4ClPhe-D3Pal-Ser-NMeTyr-DLys(Nicotinyl) -Leu-Lys(N-epsilon-Isopropyl)-Pro-DAlaNH2], the Kb was 0.0158 nM.

Consider `CC(C)C[C@H](NC(=O)[C@@H](CCCCNC(=O)NNC(=O)c1cccnc1)NC(=O)[C@H](Cc1ccc(O)cc1)N(C)C(=O)[C@H](CO)NC(=O)[C@@H](Cc1cccnc1)NC(=O)[C@@H](Cc1ccc(Cl)cc1)NC(=O)[C@@H](Cc1ccc2ccccc2c1)NC(=O)CNC(=O)C1CCCO1)C(=O)N[C@@H](CCCCNC(C)C)C(=O)N1CCC[C@H]1C(=O)N[C@H](C)C(N)=O` (mixture of isomers) [Example 11, N-(R,S)Tetrahydrofur-2-oyl-Gly-D2Nal-D4ClPhe-D3Pal-Ser-NMeTyr-DLys(Azagly-Nicotinyl) -Leu-Lys(N-epsilon-Isopropyl)-Pro-DAlaNH2], for which the Kb was 0.038 nM.

For `CC(C)C[C@H](NC(=O)[C@@H](CCCCNC(=O)CNC(=O)c1cccnc1)NC(=O)[C@H](Cc1ccc(O)cc1)N(C)C(=O)[C@H](CO)NC(=O)[C@@H](Cc1cccnc1)NC(=O)[C@@H](Cc1ccc(Cl)cc1)NC(=O)[C@@H](Cc1ccc2ccccc2c1)NC(=O)CNC(=O)C1CCCO1)C(=O)N[C@@H](CCCNC(=N)N)C(=O)N1CCC[C@H]1C(=O)N[C@H](C)C(N)=O` (mixture of isomers) [Example 27b, N-(R,S)-Tetrahydrofur-2oyl-Gly-D2Nal-D4ClPhe-D3Pal-Ser-NMeTyr-DLys(Gly-Nic)-Leu-Arg-Pro-DAlaNH 2], the Kb is 0.0135 nM.

Consider `CC(C)C[C@H](NC(=O)[C@@H](CCCCNC(=O)NNC(=O)c1ccco1)NC(=O)[C@H](Cc1ccc(O)cc1)N(C)C(=O)[C@H](CO)NC(=O)[C@@H](Cc1cccnc1)NC(=O)[C@@H](Cc1ccc(Cl)cc1)NC(=O)[C@@H](Cc1ccc2ccccc2c1)NC(=O)CNC(=O)C1CCCO1)C(=O)N[C@@H](CCCCNC(C)C)C(=O)N1CCC[C@H]1C(=O)N[C@H](C)C(N)=O` (mixture of isomers) [Example 30a, N-(R,S)-Tetrahydrofur-2-oyl-Gly-D2Nal-D4ClPhe-D3Pal-Ser-NMeTyr-DLys(Azagly-2Fur)-Leu-Lys(Isp)-Pro-DAlaNH2], for which the Kb was 0.0479 nM.

Regarding `CC(C)C[C@H](NC(=O)[C@@H](CCCCNC(=O)c1cccnc1)NC(=O)[C@H](Cc1ccc(O)cc1)N(C)C(=O)[C@H](CO)NC(=O)[C@@H](Cc1cccnc1)NC(=O)[C@@H](Cc1ccc(Cl)cc1)NC(=O)[C@@H](Cc1ccc2ccccc2c1)NC(=O)CNC(=O)C1CCCO1)C(=O)N[C@@H](CCCCNC(C)C)C(=O)N1CCC[C@H]1C(=O)N(C)CC(N)=O` (mixture of isomers) [Example 38, N-(R,S)-Tetrahydrofur-2-oyl-Gly-D2Nal-D4ClPhe-D3Pal-Ser-NMeTyr-DLys(Nicotinyl)-Leu-Lys(Isp)-Pro-SarNH2], the Kb is 0.0309 nM.

As to `CC(C)C[C@H](NC(=O)[C@@H](CCCCNC(=O)c1cccnc1)NC(=O)[C@H](Cc1ccc(O)cc1)NC(=O)[C@H](CO)NC(=O)[C@@H](Cc1cccnc1)NC(=O)[C@@H](Cc1ccc(Cl)cc1)NC(=O)[C@@H](Cc1ccc2ccccc2c1)NC(=O)CNC(=O)C1CCCO1)C(=O)N[C@@H](CCCCNC(C)C)C(=O)N1CCC[C@H]1C(=O)N[C@H](C)C(N)=O` (mixture of isomers) [Example 91, N (R,S)-2-Tetrahydrofuroyl-Gly-D2Nal-D4ClPhe-D3Pal-Ser-Tyr-DLys(N-epsilon-Nicotinyl) -Leu-Lys(N-epsilon-Isopropyl)-Pro-DAlaNH2], the Kb is 0.00219 nM.
